Test results from PubChem BioAssay AID1259407 (Chemical Carcinogenesis Research Information System (CCRIS), 2018).
Activity calls are given as the source filed them. The rule behind the calls is not given here.

System: CCRIS mutagenicity, Ames/micronucleus/aberration tests
Experiment: CCRIS mutagenicity studies
[1] = Test System: AMES SALMONELLA TYPHIMURIUM, Strain/Indicator: TA98, Metabolic Activation: NONE, Method: PREINCUBATION
[2] = Test System: AMES SALMONELLA TYPHIMURIUM, Strain/Indicator: TA100, Metabolic Activation: NONE, Method: PREINCUBATION
[3] = Test System: AMES SALMONELLA TYPHIMURIUM, Strain/Indicator: TA1535, Metabolic Activation: NONE, Method: PREINCUBATION
[4] = Test System: AMES SALMONELLA TYPHIMURIUM, Strain/Indicator: TA1537, Metabolic Activation: NONE, Method: PREINCUBATION
[5] = Test System: AMES SALMONELLA TYPHIMURIUM, Strain/Indicator: TA98, Metabolic Activation: NONE, Method: STANDARD PLATE
[6] = Test System: AMES SALMONELLA TYPHIMURIUM, Strain/Indicator: TA100, Metabolic Activation: NONE, Method: STANDARD PLATE
[7] = Test System: AMES SALMONELLA TYPHIMURIUM, Strain/Indicator: TA102, Metabolic Activation: NONE, Method: STANDARD PLATE

With `O=c1oc2cccc3ccc4cccc1c4c32` the mutagenic call [1] was “inactive; negative”, the mutagenic call (Test System: AMES SALMONELLA TYPHIMURIUM, Strain/Indicator: TA98, Metabolic Activation: RAT, LIVER, S-9, AROCLOR 1254, Method: PREINCUBATION) was “inactive; negative” and the mutagenic call [2] was “inactive; negative”. The mutagenic call (Test System: AMES SALMONELLA TYPHIMURIUM, Strain/Indicator: TA100, Metabolic Activation: RAT, LIVER, S-9, AROCLOR 1254, Method: PREINCUBATION) was “inactive; negative”.

With `Cc1ccccc1OP(=O)(Oc1ccccc1)Oc1ccccc1` the mutagenic call (Test System: AMES SALMONELLA TYPHIMURIUM, Strain/Indicator: TA98, Metabolic Activation: HAMSTER, LIVER, S-9, AROCLOR 1254 (10%), Method: PREINCUBATION) was “inactive; negative”, the mutagenic call [1] was “inactive; negative” and the mutagenic call (Test System: AMES SALMONELLA TYPHIMURIUM, Strain/Indicator: TA98, Metabolic Activation: RAT, LIVER, S-9, AROCLOR 1254 (10%), Method: PREINCUBATION) was “inactive; negative”. For the same compound, the mutagenic call (Test System: AMES SALMONELLA TYPHIMURIUM, Strain/Indicator: TA100, Metabolic Activation: HAMSTER, LIVER, S-9, AROCLOR 1254 (10%), Method: PREINCUBATION) was “inactive; negative”, the mutagenic call [2] was “inactive; negative” and the mutagenic call (Test System: AMES SALMONELLA TYPHIMURIUM, Strain/Indicator: TA100, Metabolic Activation: RAT, LIVER, S-9, AROCLOR 1254 (10%), Method: PREINCUBATION) was “inactive; negative”. The mutagenic call (Test System: AMES SALMONELLA TYPHIMURIUM, Strain/Indicator: TA1535, Metabolic Activation: HAMSTER, LIVER, S-9, AROCLOR 1254 (10%), Method: PREINCUBATION) was “inactive; negative”, the mutagenic call [3] was “inactive; negative” and the mutagenic call (Test System: AMES SALMONELLA TYPHIMURIUM, Strain/Indicator: TA1535, Metabolic Activation: RAT, LIVER, S-9, AROCLOR 1254 (10%), Method: PREINCUBATION) was “inactive; negative”. For the same compound, the mutagenic call (Test System: AMES SALMONELLA TYPHIMURIUM, Strain/Indicator: TA1537, Metabolic Activation: HAMSTER, LIVER, S-9, AROCLOR 1254 (10%), Method: PREINCUBATION) was “inactive; negative”, the mutagenic call [4] was “inactive; negative” and the mutagenic call (Test System: AMES SALMONELLA TYPHIMURIUM, Strain/Indicator: TA1537, Metabolic Activation: RAT, LIVER, S-9, AROCLOR 1254 (10%), Method: PREINCUBATION) was “inactive; negative”.

With `CCCCCCC(O)CCCCCCCCCCC(=O)O` (stereo not drawn) the mutagenic call (Test System: AMES SALMONELLA TYPHIMURIUM, Strain/Indicator: TA97, Metabolic Activation: NONE, Method: STANDARD PLATE) was “inactive; negative”, the mutagenic call (Test System: AMES SALMONELLA TYPHIMURIUM, Strain/Indicator: TA97, Metabolic Activation: S-9, Method: STANDARD PLATE) was “inactive; negative” and the mutagenic call [5] was “inactive; negative”. For the same compound, the mutagenic call [6] was “inactive; negative”, the mutagenic call (Test System: AMES SALMONELLA TYPHIMURIUM, Strain/Indicator: TA100, Metabolic Activation: S-9, Method: STANDARD PLATE) was “inactive; negative” and the mutagenic call [7] was “inactive; negative”. For the same compound, the mutagenic call (Test System: AMES SALMONELLA TYPHIMURIUM, Strain/Indicator: TA102, Metabolic Activation: S-9, Method: STANDARD PLATE) was “inactive; negative”, the mutagenic call (Test System: E.COLI, Strain/Indicator: WP2 (PKM101), Metabolic Activation: NONE, Method: STANDARD PLATE) was “inactive; negative” and the mutagenic call (Test System: E.COLI, Strain/Indicator: WP2 (PKM101), Metabolic Activation: S-9, Method: STANDARD PLATE) was “inactive; negative”.

For `CC12OOC1(C)c1ccc3cccnc3c1O2` (stereo not drawn), the mutagenic call [2] was “inactive; negative”.

For `Cc1cccc(NC(=O)c2csc([N+](=O)[O-])c2)c1`, the mutagenic call [5] was “active; positive” and the mutagenic call [6] was “active; positive”.

In the case of `BrCc1ccc2cccc3c2c1-c1ccccc1-3`, the mutagenic call [5] is reported as “active; positive” and the mutagenic call [6] is reported as “active; positive”.

`CC/C=C\C=C\CCCCCCOC(C)=O` was tested, and the mutagenic call [5] was “inactive; negative”, the mutagenic call (Test System: AMES SALMONELLA TYPHIMURIUM, Strain/Indicator: TA98, Metabolic Activation: RAT, LIVER, S-9, Method: STANDARD PLATE) was “inactive; negative” and the mutagenic call [6] was “inactive; negative”. For the same compound, the mutagenic call (Test System: AMES SALMONELLA TYPHIMURIUM, Strain/Indicator: TA100, Metabolic Activation: RAT, LIVER, S-9, Method: STANDARD PLATE) was “inactive; negative”, the mutagenic call [7] was “inactive; negative” and the mutagenic call (Test System: AMES SALMONELLA TYPHIMURIUM, Strain/Indicator: TA102, Metabolic Activation: RAT, LIVER, S-9, Method: STANDARD PLATE) was “inactive; negative”.

With `O=[N+]([O-])c1ccccc1O` the mutagenic call (Test System: AMES SALMONELLA TYPHIMURIUM, Strain/Indicator: TA98, Metabolic Activation: HAMSTER, LIVER, S-9, AROCLOR 1254, FLAVIN MONONUCLEOTIDE, Method: PREINCUBATION) was “inactive; negative”, the mutagenic call [1] was “inactive; negative” and the mutagenic call (Test System: AMES SALMONELLA TYPHIMURIUM, Strain/Indicator: TA98, Metabolic Activation: RAT, LIVER, S-9, KANECHLOR 500, Method: PREINCUBATION) was “inactive; negative”. For the same compound, the mutagenic call (Test System: AMES SALMONELLA TYPHIMURIUM, Strain/Indicator: TA98, Method: PREINCUBATION) was “inactive; negative”, the mutagenic call (Test System: AMES SALMONELLA TYPHIMURIUM, Strain/Indicator: TA100, Metabolic Activation: HAMSTER, LIVER, S-9, AROCLOR 1254, FLAVIN MONONUCLEOTIDE, Method: PREINCUBATION) was “inactive; negative” and the mutagenic call [2] was “inactive; negative”. For the same compound, the mutagenic call (Test System: AMES SALMONELLA TYPHIMURIUM, Strain/Indicator: TA100, Metabolic Activation: RAT, LIVER, S-9, KANECHLOR 500, Method: PREINCUBATION) was “inactive; negative”, the mutagenic call (Test System: AMES SALMONELLA TYPHIMURIUM, Strain/Indicator: TA100, Method: PREINCUBATION) was “inactive; negative” and the mutagenic call [3] was “inactive; negative”. The mutagenic call (Test System: AMES SALMONELLA TYPHIMURIUM, Strain/Indicator: TA1535, Method: PREINCUBATION) was “inactive; negative”, the mutagenic call [4] was “inactive; negative” and the mutagenic call (Test System: AMES SALMONELLA TYPHIMURIUM, Strain/Indicator: TA1537, Method: PREINCUBATION) was “inactive; negative”. The mutagenic call (Test System: AMES SALMONELLA TYPHIMURIUM, Strain/Indicator: TA1538, Metabolic Activation: NONE, Method: PREINCUBATION) was “inactive; negative” and the mutagenic call (Test System: AMES SALMONELLA TYPHIMURIUM, Strain/Indicator: TA1538, Method: PREINCUBATION) was “inactive; negative”.

In the case of `CN(C)CCOc1ccc(/C(=C(/CCCl)c2ccccc2)c2ccccc2)cc1`, the mutagenic call (End Point: IN VITRO CHROMOSOMAL ABERRATIONS, Test System: SYRIAN HAMSTER EMBRYO (SHE) CELLS, Metabolic Activation: NONE) is reported as “active; positive (ploidy changes)”.

For `COC(=O)[C@@H]1CS[C@@H]2C(Cl)=C(Cl)C(=O)N21`, the mutagenic call [6] was “active; positive”.

In the case of `CCOC(=O)CC(C)C`, the mutagenic call (Test System: AMES SALMONELLA TYPHIMURIUM, Strain/Indicator: TA97, Metabolic Activation: NONE, Method: PREINCUBATION) is reported as “inactive; negative”, the mutagenic call (Test System: AMES SALMONELLA TYPHIMURIUM, Strain/Indicator: TA97, Metabolic Activation: RAT, LIVER, S-9, AROCLOR 1254, Method: PREINCUBATION) is reported as “inactive; negative” and the mutagenic call (Test System: AMES SALMONELLA TYPHIMURIUM, Strain/Indicator: TA102, Metabolic Activation: NONE, Method: PREINCUBATION) is reported as “inactive; negative”. The mutagenic call (Test System: AMES SALMONELLA TYPHIMURIUM, Strain/Indicator: TA102, Metabolic Activation: RAT, LIVER, S-9, AROCLOR 1254, Method: PREINCUBATION) was “inactive; negative”.

For `O=C(NCc1ccccc1)C(Br)c1ccccc1` (stereo not drawn), the mutagenic call (Test System: AMES SALMONELLA TYPHIMURIUM, Strain/Indicator: TA100, Metabolic Activation: MOUSE, LIVER, S-9, AROCLOR 1254, Method: STANDARD PLATE) was “inactive; negative” and the mutagenic call [6] was “inactive; negative”.
